The values below come from US6686358B2, “Bicyclic amino-pyrazinone compounds” (Les Laboratoires Servier, priority 2000, dated 2004).

Holding throughout (assay type): biochemical
The target in one assay is T1, human thrombin (Homo sapiens, UniProt P00734).
T1 construct: purchased Sigma
The experiment in a line: Inhibition of thrombin (fibrin formation from fibrinogen, 405 nm). Particulars: human thrombin 0.7 nM, fibrinogen substrate, 20° C., compared with control without product; read-out: concentration inhibiting the enzymatic activity of thrombin by 50% (IC50). On the procedure:
For in vitro evaluation of the inhibitory activity of the products of the invention on human thrombin (Sigma, specific activity 3230 NIH units/mg), purified human fibrinogen ([…], Stago) (Fg) was added to a given amount of thrombin (0.7 nM) that had previously been incubated with or without the inhibitor to be tested (20° C., 10 minutes).
Inhibitors, enzymes and substrates are diluted in the same buffer (0.01 mM phosphate buffer, pH 7.4, containing 0.12M sodium chloride and 0.05% bovine serum albumin) and then distributed in a polystyrene microtitre plate in a volume of 50 μl.
The fibrin formed by the thrombin or by the paranitroanilide released by the action of the serine protease is measured spectrophotometrically at 405 nm after from 15 to 30 minutes' reaction at 20° C.

The test system of assay [1] is human plasma samples (thrombin time). The experiment in a line: Anti-coagulant activity, thrombin time (TT) in human plasma. To be noted: concentration that doubles the thrombin time, 37° C. As to the method:
(§1) In order to evaluate the anti-coagulant activity of the compounds of the invention, the thrombin time (TT) and the activated cephalin time (ACT) were determined in human plasma samples. An ST4 coagulometer was used. A plasma deficient in platelets is lyophilised and taken up in distilled water. The TT is obtained using the reagent Thrombine Prest and the ACT is obtained using the reagent Céphaline PTT Automate. Inhibitor or solvent (10 μl) is added to the plasma (90 μl), which is then incubated for 2 minutes at 37° C. 100 μl of Thrombine Prest (TT) or of Céphaline PTT Automate (ACT) are added and at the same time the timer is started.
(§2) Under those conditions, the TT is of the order of 18 seconds and the ACT of the order of 12 seconds. The activity of an antagonist is evaluated by its capacity to prolong the TT and the ACT relative to the control. The effect of the inhibitors is expressed by the concentration in μM that doubles the coagulation time (Ctt2).

Assay [2] concerns human plasma samples (activated cephalin time). The experiment in a line: Anti-coagulant activity, activated cephalin time (ACT) in human plasma. Particulars: concentration that doubles the activated cephalin time, 37° C. On the procedure:
as §1, §2

Structures can show the parent of a compound that is named as a salt.

For `NC(=NO)c1ccc(CNC(=O)[C@@H]2CCc3cnc(NCC(c4ccccc4)c4ccccc4)c(=O)n32)cc1` [Example 1, (6S)-N-{4-[amino(hydroxyimino)methyl]benzyl}-3-[(2,2-diphenyl-ethyl)amino]-4-oxo4,6,7,8-tetrahydropyrrolo[1,2-a]pyrazine-6-carboxamide], at human thrombin, the IC50 came to 141 nM. As to `NC(=NO)c1ccc(CNC(=O)[C@@H]2CCc3cnc(NCCc4ccccn4)c(=O)n32)cc1` [Example 2, (6S)-N-{4-[amino(hydroxyimino)methyl]benzyl}-4-oxo-3-{(2-(2-pyridyl)ethyl]amino}-4,6,7,8-tetrahydropyrrolo[1,2-a]pyrazine-6-carboxamide], the “TT Ctt2” value in assay [1] was determined as 3.6 µM. For the same compound, in assay [2], the “ACT Ctt2” value was 20 µM. Besides, on human thrombin, the IC50 amounted to 310 nM. Consider `N=C(N)NOCCNC(=O)[C@@H]1CCc2cnc(NCC(c3ccccc3)c3ccccc3)c(=O)n21` [Example 3, (6S)-N-[2-({[amino(imino)methyl]amino}oxy)ethyl]-3-[(2,2-diphenyl-ethyl)amino]-4-oxo4,6,7,8-tetrahydropyrrolo[1,2-a]pyrazine-6-carboxamide dihydrochloride], for which the IC50 on human thrombin stood at 4 nM. With `O=C(NCc1ccccc1OCc1ccccn1)[C@@H]1CCc2cnc(NCCc3ccccn3)c(=O)n21` [Example 10, (6S)-4-oxo-3-{[2-(2-pyridyl)ethyl]amino}-N-[2-(2-pyridylmethoxy)-benzyl]-4,6,7,8-tetrahydropyrrolo[1,2-a]pyrazine-6-carboxamide], the IC50 at human thrombin was determined as 136 nM. Turning to `O=C(NCc1ccccc1OCC1=NCCN1)[C@@H]1CCc2cnc(NCCc3ccccn3)c(=O)n21` [Example 15, (6S)-N-[2-(4,5-dihydro-1H-imidazol-2-ylmethoxy)benzyl]4-oxo-3-{[2-(2-pyridyl)ethyl]amino}-4,6,7,8-tetrahydropyrrolo[1,2-a]-pyrazine-6-carboxamide], in assay [1], the “TT Ctt2” value is 0.19 µM. The “ACT Ctt2” value in assay [2] turned out to be 1.91 µM. Besides, the IC50 on human thrombin was 12 nM.

On to `Nc1noc2cc(CNC(=O)[C@@H]3CCc4cnc(NCCc5ccccn5)c(=O)n43)ccc12` [Example 17], for which the IC50 at human thrombin worked out at 140 nM. In the case of `O=C(NCc1ccc2cc[nH]c2c1)[C@@H]1CCc2cnc(NCCc3ccccn3)c(=O)n21` [Example 18, (6S)-N-[1H-indol-6-ylmethyl)-4-oxo-3-{[2-(2-pyridyl)ethyl]amino}-4,6,7,8-tetrahydropyrrolo[1,2-a]pyrazine-6-carboxamide], the “TT Ctt2” value in assay [1] was 0.28 µM. In addition, the “ACT Ctt2” value in assay [2] was 3.07 µM. The IC50 at human thrombin was determined as 22 nM.
